Data from US6048894A, “Substituted amide derivatives” (Banyu Pharmaceutical Co., Ltd., priority 1996, dated 2000).

Target: T1, protein-farnesyl transferase (PFT) (Rattus norvegicus, UniProt Q02293+Q04631)
T1 construct: a soluble fraction of rat's brain was fractionated; from tissue; host or cells: rat brain, soluble fraction, 30-50% ammonium sulfate cut, Q-Sepharose chromatography
Test: Inhibitory activities against protein-farnesyl transferase (PFT), IC50
Format: biochemical
Details: PFT from rat brain (Q-sepharose fraction); prenyl acceptor H-ras protein or biotin-added Lys-Thr-Ser-Cys-Val-Ile-Met (not stated which for Table 1); [3H]-FPP 0.6 μM; 37° C., 20 min; read-out: 50% inhibitory concentrations against PFT activities, IC50
Experimental: PFT was separated in such a manner that a soluble fraction of rat's brain was fractionated by means of 30%-50% saturated ammonium sulfate, further dialyzed and then subjected to column chromatography by Q-sepharose™ (manufactured by Pharmacia) (Reiss et al., Cell, vol. 62, pp. 81-88 (1990)).
Measurement of PFT activities was conducted by using, as a prenyl acceptor, H-ras protein or a peptide corresponding to the C-terminal 7 amino acid residues of K-rasB protein which had biotin added to the N-terminal (biotin-added Lys-Thr-Ser-Cys-Val-Ile-Met) and, as a prenyl donor, [^3 H]-labeled farnesyl pyrophosphate (FPP) (Reiss et al., Methods: A companion to Methods in Enzymology, vol. 1, No. 3, pp. 241-245 (1990)).
The [^3 H]-labeled farnesyl pyrophosphate (22.5 Ci/mmol) was purchased from New England Nuclear Co. Non-labeled farnesyl pyrophosphate was chemically synthesized from ditrethylammonium phosphate, trans-trans-farnesol and trichloroacetonitrile and purified by a XAD-2-resin column and diethylaminoethylcellulose (Cornforth et al., Methods in Enzymology, vol. 15, pp. 385-390 (1969)). […]
The enzymatic reaction product containing H-ras protein as the prenyl acceptor, was analyzed by SDS-PAGE (sodium dodecyl sulfate/polyacrylamide gel electrophoresis). […]
The measurement of PFT activities using H-ras protein as the prenyl receptor, was also analyzed by a rapid separate method. […]

Compound	IC50 [nM]
CCOC(=O)C(CC(=O)O)=C(O)C(=O)N(Cc1ccc2ccccc2c1)[C@H](C)[C@@H](Cc1ccc(C(=O)Nc2ccccc2)o1)C(=O)OC(C)C (racemic) [Example 2, 3-(ethoxycarbonyl)-4-hydroxy-4-[N-[(1RS,2RS)-2-(isopropoxycarbonyl)-1-methyl-3-{5-(phenylcarbamoyl)-2-furyl}propyl]-N-(2-naphthylmethyl)carbamoyl]-3-butenoic acid]	3.1
CCOC(=O)/C=C/[C@@H](Cc1ccc(C(=O)Nc2ccccc2)o1)[C@@H](C)N(Cc1ccc2ccccc2c1)C(=O)C(O)=C(CC(=O)O)C(=O)OCC (relative stereo) [Example 4]	7.8
